What was measured:
Erk1/2 phosphorylation = experiment: Erk1/2 Phosphorylation Assay (western blot), Panc-1; type: cell-based, human; conditions: at 10 μM, * = activation
Method in brief: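 Phospho-Erk1/2 (Thr202/Tyr204) was detected by western blot in lysates of Panc-1 cells (KRas G12D). These had 6 h, 37° C exposure to 10 μM compound or a dilution series for IC50, in 0.3% DMSO. Cells were either starved overnight in 0.5% FBS with a 15-min 1.5 ng/ml EGF pulse, or kept unstimulated in 10% FBS.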

TNF-alpha = TNF-alpha Quantification Assay (ELISA), LPS-stimulated RAW 264.7; type: cell-based; conditions: Mus musculus, RAW264.7; at 10 μM; read-out: TNFα: % inh.
Akt phosphorylation = experiment: Akt Phosphorylation Assay (western blot), Panc-1; type: cell-based, human; conditions: at 10 μM, * = activation
Method in brief: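 Phospho-Akt (Ser473) was measured by western blot in lysates of KRas G12D Panc-1 cells exposed to test compound for 6 h at 37 °C, either at 10 μM final with 0.3% DMSO or as serial dilutions for IC50. One format used overnight 0.5% FBS starvation followed by a 15 min pulse of 1.5 ng/ml EGF. The other used cells in 10% FBS with no stimulation.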

SMILES	% inh of Erk1/2 phosphorylation in Panc-1 (Erk1/2 phosphorylation)	inhibition at 10 µM (TNF-alpha)	% inh of Akt phosphorylation in Panc-1 (Akt phosphorylation)
CO[C@H]1CC[C@@H](Nc2nc(-c3nccn3C)nn3cc(-c4cccnc4)c(-c4ccccc4)c23)C1 (racemic) [Compound 193, rac N-((1R,3S)-3-Methoxycyclopentyl)-2-(1-methyl-1H-imidazol-2-yl)-5-phenyl-6-(pyridin-3-yl)pyrrolo[2,1-f][1,2,4]triazin-4-amine]	D* (85-100% activation)	25 to 49%	D* (85-100% activation)
COc1cccc(-c2cn3nc(-c4nccn4C)nc(N[C@H]4C[C@H](OC)C4)c3c2-c2ccccc2)c1C [Compound 209, 6-(3-methoxy-2-methylphenyl)-N-((1r,3r)-3-methoxycyclobutyl)-2-(1-methyl-1H-imidazol-2-yl)-5-phenylpyrrolo[2,1-f][1,2,4]triazin-4-amine]	D (85-100% inhibition)	75 to 100%	D (85-100% inhibition)
COc1cc(Nc2nc(-c3nccn3C)nn3cc(-c4ccn(C)n4)c(C)c23)ncc1C [Compound 235, N-(4-Methoxy-5-methylpyridin-2-yl)-5-methyl-2-(1-methyl-1H-imidazol-2-yl)-6-(1-methyl-1H-pyrazol-3-yl)pyrrolo[2,1-f][1,2,4]triazin-4-amine]	B* (26-49% activation)	0%	D* (85-100% activation)
COc1ccnc(Oc2nc(-c3nccn3C)nn3cc(-c4ccn(C)n4)c(C)c23)c1 [Compound 220, 4-((4-Methoxypyridin-2-yl)oxy)-5-methyl-2-(1-methyl-1H-imidazol-2-yl)-6-(1-methyl-1H-pyrazol-3-yl)pyrrolo[2,1-f][1,2,4]triazine]	A (1-25% inhibition)	1 to 24%	A (1-25% inhibition)
COc1ccnc(Nc2nc(-c3nccn3C)nn3cc(-c4ccn(CCN)n4)c(C)c23)c1 [Compound 187, 6-(1-(2-Aminoethyl)-1H-pyrazol-3-yl)-N-(4-methoxypyridin-2-yl)-5-methyl-2-(1-methyl-1H-imidazol-2-yl)pyrrolo[2,1-f][1,2,4]triazin-4-amine]	A (1-25% inhibition)	1 to 24%	C* (46-84% activation)
COc1ccnc(N(C)c2nc(-c3nccn3C)nn3cc(-c4ccn(C)n4)c(C)c23)c1 [Compound 223, N-(4-Methoxypyridin-2-yl)-N,5-dimethyl-2-(1-methyl-1H-imidazol-2-yl)-6-(1-methyl-1H-pyrazol-3-yl)pyrrolo[2,1-f][1,2,4]triazin-4-amine]	A (1-25% inhibition)	1 to 24%	B (26-49% inhibition)
COCCCS(=O)(=O)Nc1nc(-c2nccn2C)nn2cc(-c3ccccc3)c(-c3ccccc3)c12 [Compound 213, 3-Methoxy-N-(2-(1-methyl-1H-imidazol-2-yl)-5,6-diphenylpyrrolo[2,1-f][1,2,4]triazin-4-yl)propane-1-sulfonamide]	D* (85-100% activation)	0%	D* (85-100% activation)
Cc1c(-c2ccn(C)n2)cn2nc(-c3nccn3C)nc(N)c12 [Compound 211, 5-Methyl-2-(1-methyl-1H-imidazol-2-yl)-6-(1-methyl-1H-pyrazol-3-yl)pyrrolo[2,1-f][1,2,4]triazin-4-amine]	A* (1-25% activation)	0%	A (1-25% inhibition)
CO[C@H]1C[C@H](Nc2nc(-c3nccn3C)nn3cc(-c4ccncc4)c(-c4ccccc4)c23)C1 [Compound 199, N-((1r,3r)-3-Methoxycyclobutyl)-2-(1-methyl-1H-imidazol-2-yl)-5-phenyl-6-(pyridin-4-yl)pyrrolo[2,1-f][1,2,4]triazin-4-amine]	D* (85-100% activation)	1 to 24%	A (1-25% inhibition)
COC1CCCN(c2nc(-c3ccccn3)nn3cc(-c4ccn(C(C)C)n4)c(C)c23)C1 (racemic) [Compound 12, rac 6-(1-Isopropyl-1H-pyrazol-3-yl)-4-(3-methoxypiperidin-1-yl)-5-methyl-2-(pyridin-2-yl)pyrrolo[2,1-f][1,2,4]triazine]	0 (0% inhibition)	0%	0 (0% inhibition)
CO[C@H]1C[C@H](Nc2nc(-c3nccn3C)nn3cc(-c4cccnc4)c(-c4ccccc4)c23)C1 [Compound 192, N-((1r,3r)-3-Methoxycyclobutyl)-2-(1-methyl-1H-imidazol-2-yl)-5-phenyl-6-(pyridin-3-yl)pyrrolo[2,1-f][1,2,4]triazin-4-amine]	D* (85-100% activation)	25 to 49%	D* (85-100% activation)
CO[C@@H]1C[C@H]1Nc1nc(-c2nccn2C)nn2cc(-c3cccnc3)c(-c3ccccc3)c12 (racemic) [Compound 190, N-((1R,2R)-2-Methoxycyclopropyl)-2-(1-methyl-1H-imidazol-2-yl)-5-phenyl-6-(pyridin-3-yl)pyrrolo[2,1-f][1,2,4]triazin-4-amine]	D* (85-100% activation)	1 to 24%	D* (85-100% activation)
COCC1CCN(c2nc(-c3ccccn3)nn3cc(-c4ccn(C(C)C)n4)c(C)c23)C1 (racemic) [Compound 10, rac 6-(1-Isopropyl-1H-pyrazol-3-yl)-4-(3-(methoxymethyl)pyrrolidin-1-yl)-5-methyl-2-(pyridin-2-yl)pyrrolo[2,1-f][1,2,4]triazine]	0 (0% inhibition)	0%	0 (0% inhibition)
COCCNc1nc(-c2nccn2C)nn2cc(-c3ccncc3)c(-c3ccccc3)c12 [Compound 202, N-(2-Methoxyethyl)-2-(1-methyl-1H-imidazol-2-yl)-5-phenyl-6-(pyridin-4-yl)pyrrolo[2,1-f][1,2,4]triazin-4-amine]	D* (85-100% activation)	1 to 24%	B (26-49% inhibition)
Cc1c(-c2ccn(C)n2)cn2nc(-c3nccn3C)nc(Nc3cc(C(C)(C)O)ccn3)c12 [Compound 240, 2-(2-((5-Methyl-2-(1-methyl-1H-imidazol-2-yl)-6-(1-methyl-1H-pyrazol-3-yl)pyrrolo[2,1-f][1,2,4]triazin-4-yl)amino)pyridin-4-yl)propan-2-ol]	A* (1-25% activation)	0%	D* (85-100% activation)
Cc1c(-c2ccn(C)n2)cn2nc(-c3nccn3C)nc(Nc3ccc(-n4ccnc4)cn3)c12 [Compound 242, N-(5-(1H-Imidazol-1-yl)pyridin-2-yl)-5-methyl-2-(1-methyl-1H-imidazol-2-yl)-6-(1-methyl-1H-pyrazol-3-yl)pyrrolo[2,1-f][1,2,4]triazin-4-amine]	0 (0% inhibition)	0%	D* (85-100% activation)
Cc1c(-c2ccn(C)n2)cn2nc(-c3nccn3C)nc(Nc3ccc(C(C)(C)O)cn3)c12 [Compound 241, 2-(6-((5-Methyl-2-(1-methyl-1H-imidazol-2-yl)-6-(1-methyl-1H-pyrazol-3-yl)pyrrolo[2,1-f][1,2,4]triazin-4-yl)amino)pyridin-3-yl)propan-2-ol]	D* (85-100% activation)	1 to 24%	D* (85-100% activation)
COc1ccnc(Nc2nc(-c3nccn3C)nn3cc(-c4ccn(C)n4)c(C(=O)N4CCCC4)c23)c1 [Compound 178, (4-((4-Methoxypyridin-2-yl)amino)-2-(1-methyl-1H-imidazol-2-yl)-6-(1-methyl-1H-pyrazol-3-yl)pyrrolo[2,1-f][1,2,4]triazin-5-yl)(pyrrolidin-1-yl)methanone]	D* (85-100% activation)	0%	D* (85-100% activation)
COc1ccnc(Nc2nc(-c3nccn3C)nn3cc(-c4ccn(C)n4)c(C(=O)NC4CC4)c23)c1 [Compound 175, N-Cyclopropyl-4-((4-methoxypyridin-2-yl)amino)-2-(1-methyl-1H-imidazol-2-yl)-6-(1-methyl-1H-pyrazol-3-yl)pyrrolo[2,1-f][1,2,4]triazine-5-carboxamide]	D* (85-100% activation)	0%	D* (85-100% activation)

— patent US12459951B2, “Compounds that interact with RAS superfamily proteins for treatment of cancers, inflammatory diseases, rasopathies, and fibrotic disease” (SHY Therapeutics, LLC, priority 2022, dated 2025)
